Results from ChEMBL document CHEMBL5058641, “Data for DCP probe TP-050” (2022).

Key:
[1] = target: 5-hydroxytryptamine receptor 1A (Homo sapiens) (UniProt P08908); conditions: Compound concentration 10.0 uM
[2] = target: Alpha-1D adrenergic receptor (Homo sapiens) (UniProt P25100); conditions: Compound concentration 10.0 uM
[3] = target: Histamine H1 receptor (Homo sapiens, UniProt P35367); conditions: Compound concentration 10.0 uM
[4] = target: Sodium-dependent noradrenaline transporter (Homo sapiens, UniProt P23975); conditions: Compound concentration 10.0 uM
[5] = target: 5-hydroxytryptamine receptor 3A (Homo sapiens) (UniProt P46098); conditions: Compound concentration 10.0 uM
[6] = AMPA receptor scintillation proximity binding assay; set-up: species or system Homo sapiens
[7] = target: 5-hydroxytryptamine receptor 5A (Homo sapiens) (UniProt P47898); conditions: Compound concentration 10.0 uM
[8] = target: GABA-A receptor; anion channel (Rattus norvegicus) (UniProt O09028+P15431+P18506+P18508+P19969+P20236+P23574+P23576+P28471+P28473+P30191+P62813+P63079+P63138+Q91ZM7+Q9ES14); conditions: Compound concentration 10.0 uM
[9] = target: D(2) dopamine receptor (Homo sapiens, UniProt P14416); conditions: Compound concentration 10.0 uM
[10] = target: T1, Sodium-dependent dopamine transporter (Homo sapiens, UniProt Q01959); test: GPCRScan assay: inhibition of DAT; set-up: radioligand conc. used [nm] 3.6 – 16.0, parental cells stable HEK
[11] = target: Beta-1 adrenergic receptor (Homo sapiens, UniProt P08588); conditions: Compound concentration 10.0 uM
[12] = target: Muscarinic acetylcholine receptor M1 (Homo sapiens) (UniProt P11229); conditions: Compound concentration 10.0 uM
[13] = target: Delta-type opioid receptor (Homo sapiens, UniProt P41143); conditions: Compound concentration 10.0 uM
[14] = target: Alpha-2A adrenergic receptor (Homo sapiens) (UniProt P08913); conditions: Compound concentration 10.0 uM
[15] = target: Alpha-2B adrenergic receptor (Homo sapiens) (UniProt P18089); conditions: Compound concentration 10.0 uM
[16] = target: Sodium-dependent serotonin transporter (Homo sapiens, UniProt P31645); conditions: Compound concentration 10.0 uM
[17] = target: 5-hydroxytryptamine receptor 6 (Homo sapiens) (UniProt P50406); conditions: Compound concentration 10.0 uM
[18] = target: Sigma intracellular receptor 2 (Homo sapiens) (UniProt Q5BJF2); conditions: Compound concentration 10.0 uM
[19] = target: 5-hydroxytryptamine receptor 2B (Homo sapiens, UniProt P41595); conditions: Compound concentration 10.0 uM
[20] = target: D(3) dopamine receptor (Homo sapiens) (UniProt P35462); conditions: Compound concentration 10.0 uM
[21] = target: Glutamate receptor ionotropic, NMDA 2A (Homo sapiens, UniProt Q05586+Q12879); test: GluN2A-containing NMDA receptor (Ca2+ influx) assay (EC50)
[22] = target: Kappa-type opioid receptor (Homo sapiens, UniProt P41145); conditions: Compound concentration 10.0 uM
[23] = target: Sigma non-opioid intracellular receptor 1 (Homo sapiens) (UniProt Q99720); conditions: Compound concentration 10.0 uM
[24] = target: Histamine H2 receptor (Homo sapiens, UniProt P25021); conditions: Compound concentration 10.0 uM
[25] = target: Alpha-2C adrenergic receptor (Homo sapiens) (UniProt P18825); conditions: Compound concentration 10.0 uM
[26] = species: Rattus norvegicus; conditions: Compound concentration 10.0 uM
[27] = target: Histamine H3 receptor (Homo sapiens) (UniProt Q9Y5N1); conditions: Compound concentration 10.0 uM
[28] = target: 5-hydroxytryptamine receptor 2A (Homo sapiens, UniProt P28223); conditions: Compound concentration 10.0 uM
[29] = target: 5-hydroxytryptamine receptor 1B (Homo sapiens, UniProt P28222); conditions: Compound concentration 10.0 uM
[30] = target: Mu-type opioid receptor (Homo sapiens, UniProt P35372); conditions: Compound concentration 10.0 uM
[31] = target: T1, Sodium-dependent dopamine transporter; conditions: Compound concentration 10.0 uM
[32] = target: 5-hydroxytryptamine receptor 1D (Homo sapiens, UniProt P28221); conditions: Compound concentration 10.0 uM
[33] = target: Muscarinic acetylcholine receptor M4 (Homo sapiens) (UniProt P08173); conditions: Compound concentration 10.0 uM
[34] = target: 5-hydroxytryptamine receptor 1E (Homo sapiens) (UniProt P28566); conditions: Compound concentration 10.0 uM
[35] = target: D(1A) dopamine receptor (Homo sapiens, UniProt P21728); conditions: Compound concentration 10.0 uM
[36] = target: Histamine H4 receptor (Homo sapiens) (UniProt Q9H3N8); conditions: Compound concentration 10.0 uM
[37] = target: Beta-3 adrenergic receptor (Homo sapiens) (UniProt P13945); conditions: Compound concentration 10.0 uM
[38] = target: D(4) dopamine receptor (Homo sapiens) (UniProt P21917); conditions: Compound concentration 10.0 uM
[39] = target: 5-hydroxytryptamine receptor 2C (Homo sapiens) (UniProt P28335); conditions: Compound concentration 10.0 uM
[40] = target: Alpha-1B adrenergic receptor (Homo sapiens) (UniProt P35368); conditions: Compound concentration 10.0 uM

T1 sequence (Q01959 whole entry): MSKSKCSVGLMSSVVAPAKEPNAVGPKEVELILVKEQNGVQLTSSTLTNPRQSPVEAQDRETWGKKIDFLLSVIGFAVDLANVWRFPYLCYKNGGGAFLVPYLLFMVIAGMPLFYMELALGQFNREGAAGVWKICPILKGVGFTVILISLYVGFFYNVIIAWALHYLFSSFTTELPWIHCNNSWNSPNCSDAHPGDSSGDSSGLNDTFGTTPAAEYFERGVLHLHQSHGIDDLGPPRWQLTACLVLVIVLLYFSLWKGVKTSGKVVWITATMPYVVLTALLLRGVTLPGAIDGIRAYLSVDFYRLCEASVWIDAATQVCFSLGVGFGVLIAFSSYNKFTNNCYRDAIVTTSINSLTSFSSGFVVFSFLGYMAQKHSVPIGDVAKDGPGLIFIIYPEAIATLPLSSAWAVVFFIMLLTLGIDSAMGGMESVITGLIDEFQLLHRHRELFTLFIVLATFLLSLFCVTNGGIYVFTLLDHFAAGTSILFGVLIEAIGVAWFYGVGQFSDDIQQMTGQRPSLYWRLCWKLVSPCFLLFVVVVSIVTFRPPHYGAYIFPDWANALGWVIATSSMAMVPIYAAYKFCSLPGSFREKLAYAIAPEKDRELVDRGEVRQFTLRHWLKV
Chain of 5-hydroxytryptamine receptor 2A (P28223 whole entry): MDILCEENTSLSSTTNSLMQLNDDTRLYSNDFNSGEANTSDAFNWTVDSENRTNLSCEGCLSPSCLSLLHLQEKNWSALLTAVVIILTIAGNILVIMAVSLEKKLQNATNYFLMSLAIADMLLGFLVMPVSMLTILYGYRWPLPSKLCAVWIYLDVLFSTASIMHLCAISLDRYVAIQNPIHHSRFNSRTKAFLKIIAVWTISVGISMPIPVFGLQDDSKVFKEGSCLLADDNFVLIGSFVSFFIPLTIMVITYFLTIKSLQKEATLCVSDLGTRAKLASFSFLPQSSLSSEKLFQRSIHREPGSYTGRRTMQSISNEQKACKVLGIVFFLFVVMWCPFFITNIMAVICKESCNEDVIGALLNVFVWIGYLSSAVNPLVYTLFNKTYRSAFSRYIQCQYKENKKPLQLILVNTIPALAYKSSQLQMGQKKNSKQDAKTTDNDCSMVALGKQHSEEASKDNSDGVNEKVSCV
Chain of Alpha-2C adrenergic receptor (Homo sapiens) (P18825 whole entry): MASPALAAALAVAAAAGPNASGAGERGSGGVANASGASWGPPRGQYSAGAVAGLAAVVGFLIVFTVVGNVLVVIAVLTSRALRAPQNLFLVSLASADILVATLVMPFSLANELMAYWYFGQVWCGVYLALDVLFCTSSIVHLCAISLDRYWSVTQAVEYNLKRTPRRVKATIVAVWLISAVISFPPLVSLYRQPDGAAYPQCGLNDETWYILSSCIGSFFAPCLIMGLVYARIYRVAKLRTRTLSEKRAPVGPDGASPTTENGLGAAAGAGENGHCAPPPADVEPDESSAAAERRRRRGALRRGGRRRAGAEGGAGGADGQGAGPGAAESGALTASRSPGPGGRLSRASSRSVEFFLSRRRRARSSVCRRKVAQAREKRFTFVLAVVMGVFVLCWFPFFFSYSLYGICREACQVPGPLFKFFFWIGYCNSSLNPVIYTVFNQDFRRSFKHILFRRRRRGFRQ
Chain of Sodium-dependent noradrenaline transporter (P23975 whole entry): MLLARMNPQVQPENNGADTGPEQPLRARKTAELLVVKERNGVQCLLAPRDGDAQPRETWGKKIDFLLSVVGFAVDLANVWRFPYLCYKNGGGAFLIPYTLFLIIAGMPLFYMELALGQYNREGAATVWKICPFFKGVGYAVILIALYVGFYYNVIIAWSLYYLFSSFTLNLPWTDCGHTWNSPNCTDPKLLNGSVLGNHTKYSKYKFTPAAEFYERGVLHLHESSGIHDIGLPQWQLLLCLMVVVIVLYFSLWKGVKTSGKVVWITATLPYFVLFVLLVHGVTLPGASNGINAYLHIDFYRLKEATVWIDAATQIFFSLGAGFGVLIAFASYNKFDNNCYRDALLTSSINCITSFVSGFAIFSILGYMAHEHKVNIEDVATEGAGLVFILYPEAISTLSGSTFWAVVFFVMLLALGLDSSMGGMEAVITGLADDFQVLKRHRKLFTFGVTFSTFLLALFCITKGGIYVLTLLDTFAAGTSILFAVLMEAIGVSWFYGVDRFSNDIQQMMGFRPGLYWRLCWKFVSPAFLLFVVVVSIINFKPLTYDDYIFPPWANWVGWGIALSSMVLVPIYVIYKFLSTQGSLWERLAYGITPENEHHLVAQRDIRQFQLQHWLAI
Chain of Muscarinic acetylcholine receptor M4 (Homo sapiens) (P08173 whole entry): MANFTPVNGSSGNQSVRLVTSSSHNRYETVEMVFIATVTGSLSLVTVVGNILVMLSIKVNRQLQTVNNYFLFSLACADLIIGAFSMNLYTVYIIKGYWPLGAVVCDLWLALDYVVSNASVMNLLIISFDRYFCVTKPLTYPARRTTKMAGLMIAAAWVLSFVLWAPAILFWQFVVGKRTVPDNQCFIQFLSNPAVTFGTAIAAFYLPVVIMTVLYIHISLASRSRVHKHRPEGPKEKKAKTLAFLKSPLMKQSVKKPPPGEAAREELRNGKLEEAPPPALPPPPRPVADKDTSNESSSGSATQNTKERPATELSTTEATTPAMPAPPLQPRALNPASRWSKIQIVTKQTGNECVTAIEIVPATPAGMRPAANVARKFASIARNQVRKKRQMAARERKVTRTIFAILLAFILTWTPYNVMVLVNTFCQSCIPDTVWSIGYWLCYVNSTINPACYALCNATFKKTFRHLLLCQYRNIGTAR
Chain of Alpha-2B adrenergic receptor (Homo sapiens) (P18089 whole entry): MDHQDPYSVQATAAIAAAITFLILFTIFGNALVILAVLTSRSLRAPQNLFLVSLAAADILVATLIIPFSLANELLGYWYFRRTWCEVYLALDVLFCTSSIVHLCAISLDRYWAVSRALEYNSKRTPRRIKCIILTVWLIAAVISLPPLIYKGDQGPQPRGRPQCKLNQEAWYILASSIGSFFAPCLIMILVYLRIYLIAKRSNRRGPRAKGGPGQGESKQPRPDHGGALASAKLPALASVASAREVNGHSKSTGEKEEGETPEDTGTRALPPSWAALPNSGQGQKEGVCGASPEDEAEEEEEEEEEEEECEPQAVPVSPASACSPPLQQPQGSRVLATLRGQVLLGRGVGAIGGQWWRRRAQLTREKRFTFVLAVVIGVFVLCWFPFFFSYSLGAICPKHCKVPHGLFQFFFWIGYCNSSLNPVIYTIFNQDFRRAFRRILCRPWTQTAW
Chain of Muscarinic acetylcholine receptor M1 (Homo sapiens) (P11229 whole entry): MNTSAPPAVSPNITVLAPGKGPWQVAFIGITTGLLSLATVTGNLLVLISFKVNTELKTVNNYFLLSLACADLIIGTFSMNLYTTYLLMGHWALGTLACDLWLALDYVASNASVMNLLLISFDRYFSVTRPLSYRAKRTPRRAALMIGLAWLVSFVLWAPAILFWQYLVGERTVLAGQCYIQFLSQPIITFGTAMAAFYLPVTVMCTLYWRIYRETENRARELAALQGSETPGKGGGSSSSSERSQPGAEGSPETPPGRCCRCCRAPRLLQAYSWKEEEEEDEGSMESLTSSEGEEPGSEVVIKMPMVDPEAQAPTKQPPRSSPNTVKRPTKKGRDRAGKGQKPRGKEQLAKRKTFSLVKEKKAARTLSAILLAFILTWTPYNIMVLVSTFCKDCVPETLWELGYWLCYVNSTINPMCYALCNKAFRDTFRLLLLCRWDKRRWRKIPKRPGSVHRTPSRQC
Chain of Delta-type opioid receptor (P41143 whole entry): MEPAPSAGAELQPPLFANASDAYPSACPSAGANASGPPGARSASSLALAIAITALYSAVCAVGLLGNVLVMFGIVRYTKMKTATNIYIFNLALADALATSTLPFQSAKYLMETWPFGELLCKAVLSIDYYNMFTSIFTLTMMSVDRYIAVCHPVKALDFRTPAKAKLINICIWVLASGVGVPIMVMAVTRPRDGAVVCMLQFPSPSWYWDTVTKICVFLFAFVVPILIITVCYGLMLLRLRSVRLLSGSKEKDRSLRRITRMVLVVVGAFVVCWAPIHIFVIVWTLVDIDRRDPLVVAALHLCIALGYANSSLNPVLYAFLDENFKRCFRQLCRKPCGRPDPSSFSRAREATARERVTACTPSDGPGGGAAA
Chain of Histamine H3 receptor (Homo sapiens) (Q9Y5N1 whole entry): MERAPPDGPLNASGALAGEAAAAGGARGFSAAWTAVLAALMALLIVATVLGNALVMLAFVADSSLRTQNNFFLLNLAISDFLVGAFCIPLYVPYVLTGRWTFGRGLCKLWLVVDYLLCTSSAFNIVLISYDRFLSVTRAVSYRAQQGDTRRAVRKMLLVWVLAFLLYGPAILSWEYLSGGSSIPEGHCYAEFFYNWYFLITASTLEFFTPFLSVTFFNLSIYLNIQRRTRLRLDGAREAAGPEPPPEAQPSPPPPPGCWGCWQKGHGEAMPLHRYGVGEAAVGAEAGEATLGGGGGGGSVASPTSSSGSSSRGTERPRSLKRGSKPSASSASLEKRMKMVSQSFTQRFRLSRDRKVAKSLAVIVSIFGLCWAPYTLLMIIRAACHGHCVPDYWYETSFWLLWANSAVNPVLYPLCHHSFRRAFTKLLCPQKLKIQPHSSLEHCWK
Chain of 5-hydroxytryptamine receptor 6 (Homo sapiens) (P50406 whole entry): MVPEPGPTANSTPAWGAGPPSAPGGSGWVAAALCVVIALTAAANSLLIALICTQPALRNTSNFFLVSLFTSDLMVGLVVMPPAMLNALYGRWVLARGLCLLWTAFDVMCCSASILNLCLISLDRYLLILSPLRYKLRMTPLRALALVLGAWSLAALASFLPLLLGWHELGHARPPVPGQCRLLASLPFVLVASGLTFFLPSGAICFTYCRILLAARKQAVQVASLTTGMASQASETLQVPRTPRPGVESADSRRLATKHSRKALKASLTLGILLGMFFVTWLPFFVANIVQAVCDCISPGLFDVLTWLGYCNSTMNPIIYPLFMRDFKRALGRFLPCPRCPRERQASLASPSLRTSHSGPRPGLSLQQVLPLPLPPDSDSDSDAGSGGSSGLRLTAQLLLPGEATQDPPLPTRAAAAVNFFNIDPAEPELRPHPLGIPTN

inhibition [1]: -6.45% | inhibition [2]: -4.44% | inhibition [3]: -2.74% | inhibition [4]: -2.17% | inhibition [5]: -1.27% | IC50 [6]: > 30 µM (not active) | inhibition [7]: -7.46% | inhibition [8]: 1.81% | inhibition [9]: 5.88% | pKi [10]: < 5 | Ki ([10]; read-out: Ki): > 10 µM | inhibition [11]: -0.27% | inhibition [12]: -8.98% | inhibition [13]: -8.09% | inhibition [14]: 19% | inhibition [15]: 1.85% | inhibition [16]: 0.68% | inhibition [17]: -6.08% | inhibition [18]: 15.8% | inhibition [19]: 12% | inhibition [20]: 4.06% | EC50 [21]: > 30 µM (not active) | inhibition [22]: 22.6% | inhibition [23]: 33.4% | inhibition [24]: 7.11% | inhibition [25]: -9.92% | inhibition [26]: 21.3% | inhibition [27]: -5.14% | inhibition [28]: -9.06% | inhibition [29]: 27.7% | inhibition [30]: -0.1% | inhibition [31]: 57.6% | inhibition [32]: 15.5% | inhibition [33]: -0.32% | inhibition [34]: 3.73% | inhibition [35]: -0.9% | inhibition [36]: 20.4% | inhibition [37]: -5.75% | inhibition [38]: -5.71% | inhibition [39]: -9.2% | inhibition [40]: 1.49%
Compound: Cc1cn([C@@H](C)CC#N)c(=O)c2cc(Cn3nc(C(F)F)cc3Cl)nn12
